This is an account of results in US20250381274A1 (priority 2022, published 2025).

SMILES strings stand for the structures. Entries after “also recorded” stand apart in the source; their conditions may differ.

The subject of one test is corneal tissues. The experiment in a line: Multiphoton/confocal imaging: autofluorescence and second harmonic generation signal. The note with it: anterior 100 μm. On the set-up: species or system rabbit. An excerpt: • The grey value of the top 100 μm (11 Z-stacks) of the cornea button was summed; • The average of the grey value summations are presented in appended FIGS. 1-25. • […] • The average of the grey value summations and Representative images at ˜600*600*100 μm in x, y, z are presented in appended FIGS. 1-25. The autofluorescence and second harmonic generation (SHG) signals of the corneal tissues in Group A were investigated to reveal the presence of CxLs and structural changes in collagenous ECM after hydration equilibrium in PBS on the same night of individual treatment days. Imaging was performed with a Nikon TI Eclipse inverted microscope using a Ti: Sapphire laser Chameleon Ultra II at 860 nm as the light source and a Nikon Apo LWD 20× objective for focusing. The emission filter was set at the FITC channel (475-650 nm, peak 525 nm) for autofluorescence signal collection and at the DAPI channel (400-600 nm, peak at 457 nm) for SHG signal collection. The XY scanning area for each sample was 635 μm by 635 μm, and Z scanning was 100 μm deep with 10 μm increments (stack of 11 images per sample). The summation of the average grey value processed in Image J at each layer was used as the representative signal strength for each sample.

A further test has as its system cornea. The test is described as follows: Corneal topography (EyeSys), effective refractive power of ex vivo eyes crosslinked under coverslip loading. Set-up: species or system rabbit. To be noted: for immediate diopter drop (words) / sustained diopter drop (words): 20% ribose 1 hr + UVA 365 nm lamp up to 3 hrs; for immediate diopter drop (words): coverslip (Hypothesis 2B / Group3); for sustained diopter drop (words): coverslip, final time point 8-10 hours; for immediate diopter drop (decrease in effective refractive power): immediately after irradiation. The text has this: • 5 additional rabbits (Paired treated and control for OS/OD) • Sample preparation for ex vivo EyeSys topography: • connected to IV system (˜15 mm H2O) • Epithelium removed • CxL during mechanical deformation introduced by the coverslip • Point1: 1 hr after IV stabilization • Point2: after applying 20% (1.7M) Ribose, then 20% Dextran • Point3: after flattening/treatment (˜2 hrs) • (flattened 8-10 mm) • Point4: ˜1 hr after point3 • Point5: last point (might need trypan blue on top) • Laser Treatments: • Fidelity II, 1069 nm, 39fs, 450 mW • Focusing: no (deliberate) spark around touching the tissue • ZEISS 40X, NA=0.1463 • Z: increments 20 μm, 5 layers (several intervals) • 1 stlayer 15 μm below surface of focus sparking • XY: 10 μm zigzag grid, 3 mm radius circle • Motor speed 2.6 mm/s, full circle treatments: ˜25*5 mins • Representative OCT and visual changes are shown in appended FIGS. 1-25.
• 3 additional rabbits (Paired treated and control for OS/OD) • connected to IV system, stabilize for ˜1 hr • Trypan Blue inside the anterior chamber beneath cornea • CxL during mechanical deformation introduced by the coverslip • (˜40%-60% flattened by coverslip from the total diameter) • Treatment Protocol-1 hr submerged in 20% w/v Ribose in 20% Dextran • up to 3 hrs of UVA lamp (visible flattening as an indicator for duration)
Corneal Topography: For Group3 eyes, using an EyeSys Vista handheld topographer, the effective refractive power (Eff.Rp) was collected at multiple time points in a 10-hour period after eye harvest. The immediate diopter drop was defined as the difference between the initial baseline Eff.Rp and the Eff.Rp immediately after CXL. The sustained diopter drop was defined as the difference between the initial baseline Eff.Rp and the final Eff.Rp. Statistical Analysis: One-tailed paired t-tests were used for statistical analysis of Eff.Rp (Group3); two-tailed paired t-tests were used for biomechanical comparison (Group1 and 2). A p-value smaller than 0.05 was considered statistically significant.
Corneal Topography and OCT: The EyeSys topography effective refractive power (Eff.Rp) and OCT images were collected at multiple time points in a 10-hour period after eye harvest. Diopter drop after CxL was calculated and compared relative to the baseline Eff.Rp.
In Group2 (n=15 rabbits), to assess corneal flattening, 24 intact eyeballs (12 rabbits) were enucleated and placed into a custom-build holder such that one eye was subject to ROS-Glycation-CXL, and the other served as a paired control. After 1 hr incubation in 20% ribose PBS, all apical eyeballs were pressed with a coverslip until the contact between the cornea and the coverslip reached approximately 3 mm in diameter until the treatment finished. Group 2A's (n=6 pairs) treated eyes were exposed to 1.5 hours of UVA lamp irradiation, whereas Group 2 B's (n=6 pairs) treated eyes were exposed to 3 hours of UVA lamp irradiation. Intraocular pressure was kept at 18-20 mm H2O through an IV system with needles connecting at the posterior side of the eyeball. In order to investigate the mechanical difference between the 1.5 hrs and 3 hrs irradiation groups, Group 2C's (n=3 pairs) corneas went through similar preparations as Group 1 corneas did such that the two treatments with different irradiation times were applied to the pair of eyes from the same animal.
Effective refractive power (Eff. RP) was measured using a handheld topographer (EyeSys Vista, Teas, USA) for Group 2A and 2B eyes. The first point measured at 0.5-1 hour represents the baseline initial refractive power after stabilization at the controlled intraocular pressure before any alterations. The second point measured at 2 hours represents the refractive power after the ribose solution application. The third point at 3.5 hours for Group 2A or 5 hours for Group 2B represents refractive power after ROS-Glycation-CXL or loading for control eyes. […]

Setting [1] is: ribose + 365 nm UVA lamp, listed as Ribose.
Setting [2] is: ribose + 400 nm femtosecond laser.
Where [3] appears, read: ribose + 1069 nm femtosecond laser.
Where [4] appears, read: ribose + 1069 nm femtosecond laser, listed as Ribose.
The mark [5] stands for this setting: 20% ribose + 1069 nm femtosecond laser 450 mW, coverslip deformation (Hypothesis 2A).

For `O=C[C@H](O)[C@H](O)[C@H](O)CO` [ribose], the “autofluorescence signal intensity change vs paired control (words)” value is listed as “increased significantly; also recorded: slightly increased; also recorded: Statistical significance” in the test with corneal tissues (ribose + 365 nm UVA lamp); “increased” in the test with corneal tissues (setting [1]); “increased significantly; also recorded: slightly increased; also recorded: Statistical significance” with corneal tissues (setting [2]); “increased significantly; also recorded: slightly increased; also recorded: Statistical significance” in the test on corneal tissues (setting [3]); “increased” in the test with corneal tissues (setting [4]). Also, the “second harmonic generation signal intensity change vs paired control (words)” value in the test on corneal tissues (ribose + 365 nm UVA lamp) is recorded as “decreased significantly; also recorded: statistically significant decreases; also recorded: Statistical significance”; in the test with corneal tissues (setting [1]) it was “decreased”; in the test with corneal tissues (setting [2]) it was “decreased significantly; also recorded: statistically significant decreases; also recorded: Statistical significance”; in the test with corneal tissues (setting [3]), “decreased significantly; also recorded: statistically significant decreases; also recorded: Statistical significance”; with corneal tissues (setting [4]), “decreased”. Also, the “immediate diopter drop (words)” value was “significant Eff.RP diopter drop” with cornea and “diopter drop immediately after treatment” in the test with cornea (listed as Ribose). Further, the “sustained diopter drop (words)” value in the test on cornea is on record as “statistically significant sustained Eff.RP diopter drop; also recorded: stably sustained”; with cornea (listed as Ribose), “persistent at the 8-10 hours time point”. The “immediate diopter change” value in the test on cornea (setting [5]) is reported as “diopter drop immediately after treatment”. Further, the “persistence of diopter change” value in the test with cornea (setting [5]) is “not persistent and gradually recovered to the baseline”. In addition, the “immediate diopter drop (decrease in effective refractive power)” value with cornea (Group 2A: 20% ribose 1 hr, 1.5 hr 365 nm UVA lamp under coverslip flattening) turned out to be 5 diopters; in the test with cornea (Group 2B: 20% ribose 1 hr, 3 hr 365 nm UVA lamp under coverslip flattening), 10 diopters. Further, in the test with cornea (Group 2A: 1.5 hr UVA treatment, 10 hr time point), the “sustained diopter drop (decrease in effective refractive power)” value is recorded as 2.5 diopters. For the same compound, in the test on cornea (Groups 2A and 2B: ribose + 1.5 hr or 3 hr UVA lamp with coverslip loading), the “refractive power drop, crosslinked vs control pairs, immediate and sustained” value is “sustained drop of refractive power; also recorded: Significant immediate and sustained refractive power drop differences”.
